From patent publication US20260022143A1, “Cyclic Peptide Inhibitors of IL-23” (JANSSEN PHARMACEUTICA NV, priority 2022, published 2026) come the findings set out here.

pIC50: −log10 of the molar value. Starred links: 1 amine or outer side, 2 acyl side, 3 side chain; linkers in the order of their positions; H or OH if unused. Positions of bridges follow the written chain, without caps; N, C: chain ends. Non-standard residues stand in square brackets, D forms with d. Residues, ends and D or L forms follow the SMILES beside them. *: point of attachment. Trp(7-(3-AcNH-Ph)) = CC(=O)Nc1cccc(-c2cccc3c(C[C@H](N)C(=O)O)c[nH]c23)c1; X13 = C[N+]1(Cc2cn(-c3ccc(C[C@H](N[*:1])C(=O)[*:2])cc3)nn2)CCOCC1; X64 = C[N+]1(C)CCN(c2ccc(C[C@H](N[*:1])C(=O)[*:2])cc2)CC1; Me3N+(CH2)2O(CH2)2O(CH2)2CO = C[N+](C)(C)CCOCCOCCC(=O)*; Trp(7-Me) = Cc1cccc2c(C[C@H](N)C(=O)O)c[nH]c12; 2Nal = N[C@@H](Cc1ccc2ccccc2c1)C(=O)O; AEF = NCCOc1ccc(C[C@H](N)C(=O)O)cc1; 3Pal = N[C@@H](Cc1cccnc1)C(=O)O; Lys(Me) = CNCCCC[C@H](N)C(=O)O; Pen = CC(C)(S)[C@H](N)C(=O)O; Thp = NC1(C(=O)O)CCOCC1; X17 = C[N+]1(CC*)CCOCC1; X3 = C[N+](C)(C)CCCCC*; Me2NCH2CH2 = CN(C)CC*; Sar = CNCC(=O)O

A short description of data set [1]: Exposed Polar Surface Area (EPSA). The class given is physicochemical. The conditions noted are these: SFC on Chirex 3014 column; sample 1 mM DMSO stock; read-out: EPSA. The method, boiled down:
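Polarity descriptor in Å² derived from retention time using 8 calibration standards re-run every 20 compounds. Duplicate injections of 1 mM DMSO stock; linear 5–60% modifier gradient (20 mM ammonium formate in MeOH) with CO2 at 4 mL/min, 35 °C, on a Chirex 3014 column.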

A further data set has as its target T1, IL-23R (Homo sapiens, UniProt Q5VWK5).
T1 construct: host or cells: HEK293
T1 sequence (Q5VWK5 24-629): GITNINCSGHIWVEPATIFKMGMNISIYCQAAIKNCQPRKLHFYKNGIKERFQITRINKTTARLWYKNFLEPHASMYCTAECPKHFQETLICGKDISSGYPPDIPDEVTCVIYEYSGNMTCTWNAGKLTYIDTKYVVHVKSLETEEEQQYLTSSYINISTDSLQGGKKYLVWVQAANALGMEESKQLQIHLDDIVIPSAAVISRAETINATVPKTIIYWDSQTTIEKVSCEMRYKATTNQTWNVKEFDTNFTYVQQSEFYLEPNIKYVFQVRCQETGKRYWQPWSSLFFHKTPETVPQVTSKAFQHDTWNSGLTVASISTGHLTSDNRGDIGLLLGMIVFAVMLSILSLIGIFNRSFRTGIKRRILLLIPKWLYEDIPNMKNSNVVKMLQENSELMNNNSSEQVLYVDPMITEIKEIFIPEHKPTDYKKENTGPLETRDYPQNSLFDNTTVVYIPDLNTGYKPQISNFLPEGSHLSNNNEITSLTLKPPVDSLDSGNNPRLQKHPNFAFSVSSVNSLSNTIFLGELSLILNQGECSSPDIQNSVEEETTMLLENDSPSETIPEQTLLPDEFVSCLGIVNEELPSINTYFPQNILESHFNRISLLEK
The data set can be described thus: IL23R Reporter Assay. As to conditions: HEK293 cells containing IL-23R, IL-12RP1 and STAT-inducible firefly luciferase reporter; 10 ng/mL IL-23 (EC90); 5 h at 37° C.; read-out: IL23R Reporter Assay. The class given is cell-based. On the technique in general: In a reporter assay the amount or activity of a reporter protein is the signal.

Regarding `CNC(=O)C[C@@H]1NC(=O)[C@@H](NC(C)=O)C(C)(C)SSC(C)(C)[C@@H](C(=O)N[C@@H](Cc2ccc(OCCNC(C)=O)cc2)C(=O)N[C@@H](Cc2ccc3ccccc3c2)C(=O)NC2(C(=O)N[C@@H](CCCCN(C)C(C)=O)C(=O)N[C@@H](CC(N)=O)C(=O)N[C@@H](Cc3cccnc3)C(=O)N(C)CC(N)=O)CCOCC2)NC(=O)[C@H](CCCCN(C)C(C)=O)NC(=O)[C@H](Cc2c[nH]c3c(C)cccc23)NC(=O)[C@H]([C@@H](C)O)NC1=O` [compound 58] (Ac-[Pen]D(NHMe)T[Trp(7-Me)][Lys(Me)](Ac)[Pen][AEF](Ac)[2Nal][Thp][Lys(Me)](Ac)N[3Pal][Sar]-NH2; disulfide 1-6), the EPSA in data set [1] amounted to 154 A^2. Besides, the pIC50 at IL-23R was 8.37.
For `CC(=O)N(C)CCCC[C@@H]1NC(=O)[C@H](Cc2c[nH]c3c(C)cccc23)NC(=O)[C@H]([C@@H](C)O)NC(=O)[C@H](CC(=O)N(C)C)NC(=O)[C@@H](NC(=O)CCOCCOCC[N+](C)(C)C)C(C)(C)SSC(C)(C)[C@@H](C(=O)N[C@@H](Cc2ccc(OCCN)cc2)C(=O)N[C@@H](Cc2ccc3ccccc3c2)C(=O)NC2(C(=O)N[C@@H](CCN(C)C(C)=O)C(=O)N[C@@H](CC(N)=O)C(=O)N[C@@H](Cc3cccnc3)C(=O)N(C)CC(=O)N(C)C)CCC(F)(F)C2)NC1=O` (single isomer, unassigned) [compound 179, cPEG3aCO-Pen(3)-N(N(Me)2)-T-7MeW-K(NMeAc)-Pen(3)-AEF-2Nal-diFCpx-Dab(NMeAc)-N-3Pya-Sar-CON(Me)2], in that order: 147 A^2 and 8.52.
The matching figures for `CC(=O)N[C@@H]1C(=O)N[C@@H](CC(=O)N(C)C)C(=O)N[C@@H]([C@@H](C)O)C(=O)N[C@@H](Cc2c[nH]c3c(C)cccc23)C(=O)N[C@@H](CCC(=O)N(C)C)C(=O)N[C@H](C(=O)N[C@@H](Cc2ccc(OCCN(C)C)cc2)C(=O)N[C@@H](Cc2ccc3ccccc3c2)C(=O)NC2(C(=O)N[C@@H](CCC(=O)N(C)C)C(=O)N[C@@H](CC(N)=O)C(=O)N[C@@H](Cc3cccnc3)C(=O)N(C)CC(=O)N(C)C)CCOCC2)C(C)(C)SSC1(C)C` [compound 118, MeCO-Pen(3)-N(N(Me)2)-T-7MeW-Q(N(Me)2)-Pen(3)-AEF(N(Me)2)-2Nal-THP-Q(N(Me)2)-N-3Pya-Sar-CON(Me)2] (Ac-[Pen]D(NMe2)T[Trp(7-Me)]E(NMe2)[Pen]Y(Me2NCH2CH2)[2Nal][Thp]E(NMe2)N[3Pal][Sar]-NMe2; disulfide 1-6 (inferred)): 138 A^2 and 8.68.
The matching figures for `CC(=O)Nc1cccc(-c2cccc3c(C[C@@H]4NC(=O)[C@H]([C@@H](C)O)NC(=O)[C@H](CC(=O)N(C)C)NC(=O)[C@@H](NC(=O)CCOCCOCC[N+](C)(C)C)C(C)(C)SSC(C)(C)[C@@H](C(=O)N[C@@H](Cc5ccc(OCC[N+]6(C)CCOCC6)cc5)C(=O)N[C@@H](Cc5ccc6ccccc6c5)C(=O)NC5(C(=O)N[C@@H](CCCCN(C)C(C)=O)C(=O)N[C@@H](CC(N)=O)C(=O)N[C@@H](Cc6cccnc6)C(=O)N(C)CC(=O)N(C)C)CCOCC5)NC(=O)[C@H](CCCCN(C)C(C)=O)NC4=O)c[nH]c23)c1` [compound 421, cPEG3aCO-Pen(3)-N(N(me)2)-T-7(3NAcPh)W-K(NMeac)-Pen(3)-MMoEF-2Nal-THP-K(NMeAc)-N-3Pya-Sar-CON(Me)2] ({Me3N+(CH2)2O(CH2)2O(CH2)2CO}-[Pen]D(NMe2)T[Trp(7-(3-AcNH-Ph))][Lys(Me)](Ac)[Pen]Y(X17)[2Nal][Thp][Lys(Me)](Ac)N[3Pal][Sar]-NMe2; disulfide 1-6 (inferred)): 168 A^2 and 8.92.
On to `CC(=O)N[C@@H]1C(=O)N[C@@H](CC(=O)N(C)C)C(=O)N[C@@H]([C@@H](C)O)C(=O)N[C@@H](Cc2c[nH]c3c(C)cccc23)C(=O)N[C@H](COCCOCC[N+](C)(C)C)C(=O)N[C@H](C(=O)N[C@@H](Cc2ccc(OCCOCCOCC[N+](C)(C)C)cc2)C(=O)N[C@@H](Cc2ccc3ccccc3c2)C(=O)NC2(C(=O)N[C@@H](CCCCN(C)C(C)=O)C(=O)N[C@@H](CC(N)=O)C(=O)N[C@@H](Cc3cccnc3)C(=O)N(C)CC(=O)N(C)C)CCOCC2)C(C)(C)SSC1(C)C` (relative stereo) [compound 268, MeCO-Pen(3)-N(N(Me)2)-T-7MeW-APEG2Ser(R*)-Pen(3)-APEG3F-2Nal-THP-K(NMeAc)-N-3Pya-Sar-CON(Me)2], for which, in data set [1], the EPSA stood at 148 A^2. For the same compound, the pIC50 on IL-23R was 6.96.
The matching figures for `CC(=O)N(C)CCCC[C@@H]1NC(=O)[C@H](Cc2c[nH]c3ccccc23)NC(=O)[C@H]([C@@H](C)O)NC(=O)[C@H](CC(=O)N(C)C)NC(=O)[C@@H](NC(=O)CCOCCOCC[N+](C)(C)C)C(C)(C)SSC(C)(C)[C@@H](C(=O)N[C@@H](Cc2ccc(OCCCCC[N+](C)(C)C)cc2)C(=O)N[C@@H](Cc2ccc3ccccc3c2)C(=O)NC2(C(=O)N[C@@H](CCCCN(C)C(C)=O)C(=O)N[C@@H](CC(N)=O)C(=O)N[C@@H](Cc3cccnc3)C(=O)N(C)CC(=O)N(C)C)CCOCC2)NC1=O` [compound 507, cPEG3aCO-Pen(3)-N(N(Me)2)-T-W-K(NMeAc)-Pen(3)-TMAPF-2Nal-THP-K(NMeAc)-N-3Pya-Sar-CONMe2] ({Me3N+(CH2)2O(CH2)2O(CH2)2CO}-[Pen]D(NMe2)TW[Lys(Me)](Ac)[Pen]Y(X3)[2Nal][Thp][Lys(Me)](Ac)N[3Pal][Sar]-NMe2; disulfide 1-6): 164 A^2 and 8.52.
Turning to `CC(=O)N(C)CCCC[C@@H]1NC(=O)[C@H](Cc2c[nH]c3c(C)cccc23)NC(=O)[C@H]([C@@H](C)O)NC(=O)[C@H](CC(=O)N(C)C)NC(=O)[C@@H](NC(=O)CCOCCOCC[N+](C)(C)C)C(C)(C)SSC(C)(C)[C@@H](C(=O)N[C@@H](Cc2ccc(N3CC[N+](C)(C)CC3)cc2)C(=O)N[C@@H](Cc2ccc3ccccc3c2)C(=O)NC2(C(=O)N[C@@H](CCCCN(C)C(C)=O)C(=O)N[C@@H](CC(N)=O)C(=O)N[C@@H](Cc3cccnc3)C(=O)N(C)CC(=O)N(C)C)CCOCC2)NC1=O` [compound 273, cPEG3aCO-Pen(3)-N(N(Me)2)-T-7MeW-K(NMeAc)-Pen(3)-PiperazinequatF-2Nal-THP-K(NMeAc)-N-3Pya-Sar-CON(Me)2] ({Me3N+(CH2)2O(CH2)2O(CH2)2CO}-[Pen]D(NMe2)T[Trp(7-Me)][Lys(Me)](Ac)[Pen][X64][2Nal][Thp][Lys(Me)](Ac)N[3Pal][Sar]-NMe2; disulfide 1-6), the EPSA in data set [1] turned out to be 157 A^2. Also, the pIC50 at IL-23R was 8.59.
Regarding `CC(=O)NCCCC[C@@H]1NC(=O)[C@H](Cc2c[nH]c3c(C)cccc23)NC(=O)[C@H]([C@@H](C)O)NC(=O)[C@H](CC(N)=O)NC(=O)[C@@H](NC(C)=O)C(C)(C)SSC(C)(C)[C@@H](C(=O)N[C@@H](Cc2ccc(OCCCCC[N+](C)(C)C)cc2)C(=O)N[C@@H](Cc2ccc3ccccc3c2)C(=O)NC2(C(=O)N[C@@H](CCCCNC(C)=O)C(=O)N[C@@H](CC(N)=O)C(=O)N[C@@H](Cc3cccnc3)C(=O)N(C)CC(N)=O)CCCCC2)NC1=O` [compound 538, MeCO-Pen(3)-N-T-7MeW-K(Ac)-Pen(3)-TMAPF-2Nal-Achx-K(Ac)-N-3Pya-Sar-CONH2], the EPSA in data set [1] worked out at 163 A^2. In addition, the pIC50 on IL-23R is 8.46.
Take `CC(=O)N(C)CCCC[C@@H]1NC(=O)[C@H](Cc2c[nH]c3c(C)cccc23)NC(=O)[C@H]([C@@H](C)O)NC(=O)[C@H](CC(=O)N(C)C)NC(=O)[C@@H](NC(=O)CCOCCOCC[N+](C)(C)C)C(C)(C)SSC(C)(C)[C@@H](C(=O)N[C@@H](Cc2ccc(OCC[N+]3(C)CCOCC3)cc2)C(=O)N[C@@H](Cc2ccc3ccccc3c2)C(=O)NC2(C(=O)N[C@@H](CCCCN(C)C(C)=O)C(=O)N[C@@H](CC(N)=O)C(=O)N[C@@H](Cc3cccnc3)C(=O)N(C)CC(=O)N(C)C)CCOCC2)NC1=O` [compound 198, cPEG3aCO-Pen(3)-N(N(Me)2)-T-7MeW-K(NMeac)-Pen(3)-MMoEF-2Nal-THP-K(NMeAc)-N-3Pya-Sar-CON(Me)2] ({Me3N+(CH2)2O(CH2)2O(CH2)2CO}-[Pen]D(NMe2)T[Trp(7-Me)][Lys(Me)](Ac)[Pen]Y(X17)[2Nal][Thp][Lys(Me)](Ac)N[3Pal][Sar]-NMe2; disulfide 1-6): the EPSA in data set [1] is 144 A^2. Also, the pIC50 at IL-23R was 8.51.
For `CC(=O)NCCCC[C@@H]1NC(=O)[C@H](Cc2c[nH]c3c(C)cccc23)NC(=O)[C@H]([C@@H](C)O)NC(=O)[C@H](CC(N)=O)NC(=O)[C@@H](NC(C)=O)C(C)(C)SSC(C)(C)[C@@H](C(=O)N[C@@H](Cc2ccc(-n3cc(C[N+]4(C)CCOCC4)nn3)cc2)C(=O)N[C@@H](Cc2ccc3ccccc3c2)C(=O)NC2(C(=O)N[C@@H](CCC(=O)O)C(=O)N[C@@H](CC(N)=O)C(=O)N[C@@H](Cc3cccnc3)C(=O)N(C)CC(N)=O)CCOCC2)NC1=O` [compound 459] (Ac-[Pen]NT[Trp(7-Me)]K(Ac)[Pen][X13][2Nal][Thp]EN[3Pal][Sar]-NH2; disulfide 1-6 (inferred)), in that order: 178 A^2 and 8.74.
